Reference: US20240109918A1, “HETEROCYCLIC COMPOUNDS AND USES THEREOF” (Kumquat Biosciences Inc., priority 2022, published 2024)

How the values were obtained:
KRASG12D = target: T1, KRASG12D (Homo sapiens, UniProt P01116, G12D); experiment: Bio-Biochem-PPI-HTRF Ras-SOS1 interaction assay (KRAS G12D); type: biochemical; details: 5 nM
T1 construct: made in house; host or cells: E. coli BL21 (DE3)
Method in brief: (§1)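 GST-tagged K-Ras (wt or G12D) with anti-GST-Eu(K) donor was mixed with His-hSOS1 and anti-6His-XL665 acceptor in HEPES pH 7.4/NaCl/DTT/BSA/Igepal buffer, with compound in duplicate from 10 μM down to 0.01 μM. After about 10 min or longer, HTRF 665/620 nm ratio gave IC50.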

KRASwt = target: T2, KRASwt (Homo sapiens, UniProt P01116); experiment: Bio-Biochem-PPI-HTRF Ras-SOS1 interaction assay (KRAS wt); type: biochemical; details: 5 nM
T2 construct: made in house; host or cells: E. coli BL21 (DE3)
T2 sequence (P01116 1-188 isoform P01116-2): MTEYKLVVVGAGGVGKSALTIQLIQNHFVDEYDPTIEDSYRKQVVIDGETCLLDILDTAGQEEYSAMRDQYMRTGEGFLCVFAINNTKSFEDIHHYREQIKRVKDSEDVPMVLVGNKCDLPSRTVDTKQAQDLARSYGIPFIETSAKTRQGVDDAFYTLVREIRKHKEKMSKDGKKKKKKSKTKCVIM
Method in brief: as §1

T1 sequence (P01116 1-188 isoform P01116-2 G12D): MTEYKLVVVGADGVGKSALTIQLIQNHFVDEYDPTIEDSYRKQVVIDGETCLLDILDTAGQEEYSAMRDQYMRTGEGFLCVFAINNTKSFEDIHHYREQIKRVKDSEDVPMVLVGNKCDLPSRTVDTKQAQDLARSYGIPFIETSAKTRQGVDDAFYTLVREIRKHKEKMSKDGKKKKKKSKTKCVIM

Row | SMILES | IC50 (KRASG12D) [µM] | IC50 (KRASwt) [µM]
1 | CC(O)(C(=O)N1CC2(CCCCN(c3nc(OC[C@@]45CCCN4C[C@H](F)C5)nc4c(F)c(-c5ccc(F)c6sc(N)c(C#N)c56)c(Cl)cc34)C2)C1)C1CC1 (stereo partly drawn) [compound 329, 2-amino-4-(6-chloro-4-(2-(2-cyclopropyl-2-hydroxypropanoyl)-2,6-diazaspiro[3.6]decan-6-yl)-8-fluoro-2-(((2R,7aS)-2-fluorotetrahydro-1H-pyrrolizin-7a(5H)-yl)methoxy)quinazolin-7-yl)-7-fluorobenzo[b]thiophene-3-carbonitrile] | < 5 | < 5
2 | N#Cc1c(N)sc2c(F)ccc(-c3c(Cl)cc4c(N5CCCCC6(CN(C(=O)C7CC7(F)F)C6)C5)nc(OC[C@@]56CCCN5C[C@H](F)C6)nc4c3F)c12 (stereo partly drawn) [compound 154, 2-amino-4-(6-chloro-4-(2-(2,2-difluorocyclopropane-1-carbonyl)-2,6-diazaspiro[3.6]decan-6-yl)-8-fluoro-2-(((2R,7aS)-2-fluorotetrahydro-1H-pyrrolizin-7a(5H)-yl)methoxy)quinazolin-7-yl)-7-fluorobenzo[b]thiophene-3-carbonitrile] | < 5 | < 5
3 | C[C@H](Oc1nc(N2CCOC3(CNC3)C2)c2cc(Cl)c(-c3ccc(F)c4sc(N)c(C#N)c34)c(F)c2n1)[C@@H]1CCCN1C (single isomer, unassigned; atropisomer 1) [compound 128] | ≥ 5 | < 5
4 | C[C@H](Oc1nc(N2CCOC3(CNC3)C2)c2cc(Cl)c(-c3ccc(F)c4sc(N)c(C#N)c34)c(F)c2n1)[C@@H]1CCCN1C [compound 110, 2-amino-4-(6-chloro-8-fluoro-2-((S)-1-((S)-1-methylpyrrolidin-2-yl)ethoxy)-4-(5-oxa-2,8-diazaspiro[3.5]nonan-8-yl)quinazolin-7-yl)-7-fluorobenzo[b]thiophene-3-carbonitrile] | < 5 | < 5
5 | C#Cc1c(F)ccc2cc(O)cc(-c3ncc4c(N5CCCCC6(CN(C(=O)[C@H]7CC7(F)F)C6)C5)nc(OC[C@@]56CCCN5C[C@H](F)C6)nc4c3F)c12 [compound 215, ((R)-2,2-difluorocyclopropyl) (6-(7-(8-ethynyl-7-fluoro-3-hydroxynaphthalen-1-yl)-8-fluoro-2-(((2R,7aS)-2-fluorotetrahydro-1H-pyrrolizin-7a(5H)-yl)methoxy)pyrido[4,3-d]pyrimidin-4-yl)-2,6-diazaspiro[3.6]decan-2-yl)methanone] | < 5 | < 5
6 | CN(C)CC(=O)N1CC2(CCCN(c3nc(OC[C@@]45CCCN4C[C@H](F)C5)nc4c(F)c(-c5ccc(F)c6sc(N)c(C#N)c56)c(Cl)cc34)C2)C1 [compound 144, 2-amino-4-(6-chloro-4-(2-(dimethylglycyl)-2,6-diazaspiro[3.5]nonan-6-yl)-8-fluoro-2-(((2R,7aS)-2-fluorotetrahydro-1H-pyrrolizin-7a(5H)-yl)methoxy)quinazolin-7-yl)-7-fluorobenzo[b]thiophene-3-carbonitrile] | < 5 | < 5
7 | N#Cc1c(N)sc2c(F)ccc(-c3c(Cl)cc4c(N5CCCC6(CN(C(=O)C7CC7)C6)C5)nc(OC[C@@]56CCCN5C[C@H](F)C6)nc4c3F)c12 [compound 120, 2-amino-4-(6-chloro-4-(2-(cyclopropanecarbonyl)-2,6-diazaspiro[3.5]nonan-6-yl)-8-fluoro-2-(((2R,7aS)-2-fluorotetrahydro-1H-pyrrolizin-7a(5H)-yl)methoxy)quinazolin-7-yl)-7-fluorobenzo[b]thiophene-3-carbonitrile] | < 5 | < 5
8 | CC(C)C(=O)N1CC2(CCCCN(c3nc(OC[C@@]45CCCN4C[C@H](F)C5)nc4c(F)c(-c5ccc(F)c6sc(N)c(C#N)c56)c(Cl)cc34)C2)C1 [compound 197, 2-amino-4-(6-chloro-8-fluoro-2-(((2R,7aS)-2-fluorotetrahydro-1H-pyrrolizin-7a(5H)-yl)methoxy)-4-(2-isobutyryl-2,6-diazaspiro[3.6]decan-6-yl)quinazolin-7-yl)-7-fluorobenzo[b]thiophene-3-carbonitrile] | < 5 | < 5
9 | CC(=O)N1CC2(CCN(c3nc(OC[C@@]45CCCN4C[C@H](F)C5)nc4c(F)c(-c5ccc(F)c6sc(N)nc56)c(Cl)cc34)CC2)C1 [compound 165, 1-(7-(7-(2-amino-7-fluorobenzo[d]thiazol-4-yl)-6-chloro-8-fluoro-2-(((2R,7aS)-2-fluorotetrahydro-1H-pyrrolizin-7a(5H)-yl)methoxy)quinazolin-4-yl)-2,7-diazaspiro[3.5]nonan-2-yl)ethan-1-one] | < 5 | < 5

Next, values leading:

Row | IC50 (KRASG12D) [µM] | IC50 (KRASwt) [µM] | SMILES
10 | < 5 | < 5 | N#Cc1c(N)sc2c(F)ccc(-c3c(Cl)cc4c(N5CCCCC6(CN(C(=O)CC7CCOCC7)C6)C5)nc(OC[C@@]56CCCN5C[C@H](F)C6)nc4c3F)c12 [compound 204, 2-amino-4-(6-chloro-8-fluoro-2-(((2R,7aS)-2-fluorotetrahydro-1H-pyrrolizin-7a(5H)-yl)methoxy)-4-(2-(2-(tetrahydro-2H-pyran-4-yl)acetyl)-2,6-diazaspiro[3.6]decan-6-yl)quinazolin-7-yl)-7-fluorobenzo[b]thiophene-3-carbonitrile]
11 | < 5 | < 5 | N#Cc1c(N)sc2c(F)ccc(-c3c(Cl)cc4c(N5CCCC6(CN(C(=O)C(F)Cl)C6)C5)nc(OC[C@@]56CCCN5C[C@H](F)C6)nc4c3F)c12 (stereo partly drawn) [compound 184, 2-amino-4-(6-chloro-4-(2-(2-chloro-2-fluoroacetyl)-2,6-diazaspiro[3.5]nonan-6-yl)-8-fluoro-2-(((2R,7aS)-2-fluorotetrahydro-1H-pyrrolizin-7a(5H)-yl)methoxy)quinazolin-7-yl)-7-fluorobenzo[b]thiophene-3-carbonitrile]
12 | < 5 | < 5 | N#Cc1c(N)sc2c(F)ccc(-c3c(Cl)cc4c(N5CCC(CO)CC6(CNC6)C5)nc(OC[C@@]56CCCN5C[C@H](F)C6)nc4c3F)c12 (stereo partly drawn) [compound 214, 2-amino-4-(6-chloro-8-fluoro-2-(((2R,7aS)-2-fluorotetrahydro-1H-pyrrolizin-7a(5H)-yl)methoxy)-4-(9-(hydroxymethyl)-2,6-diazaspiro[3.6]decan-6-yl)quinazolin-7-yl)-7-fluorobenzo[b]thiophene-3-carbonitrile]
13 | < 5 | < 5 | N#Cc1c(N)sc2c(F)ccc(-c3c(F)c4nc(OC[C@@]56CCCN5C[C@H](F)C6)nc(N5CCCCC6(CN(C(=O)C7CC7(F)F)C6)C5)c4c(=O)n3C3CC3)c12 (stereo partly drawn) [compound 246, 2-amino-4-(6-cyclopropyl-4-(2-(2,2-difluorocyclopropane-1-carbonyl)-2,6-diazaspiro[3.6]decan-6-yl)-8-fluoro-2-(((2R,7aS)-2-fluorotetrahydro-1H-pyrrolizin-7a(5H)-yl)methoxy)-5-oxo-5,6-dihydropyrido[4,3-d]pyrimidin-7-yl)-7-fluorobenzo[b]thiophene-3-carbonitrile]
14 | < 5 | < 5 | Nc1nc2c(-c3c(Cl)cc4c(N5CCC6(CC5)CN(C(=O)C(F)F)C6)nc(OC[C@@]56CCCN5C[C@H](F)C6)nc4c3F)ccc(F)c2s1 [compound 139, 1-(7-(7-(2-amino-7-fluorobenzo[d]thiazol-4-yl)-6-chloro-8-fluoro-2-(((2R,7aS)-2-fluorotetrahydro-1H-pyrrolizin-7a(5H)-yl)methoxy)quinazolin-4-yl)-2,7-diazaspiro[3.5]nonan-2-yl)-2,2-difluoroethan-1-one]
15 | < 5 | < 5 | C#Cc1c(F)ccc2cc(O)cc(-c3ncc4c(N5CCOCC6(CN(C(=O)[C@@H]7CC7(F)F)C6)C5)nc(OC[C@@]56CCCN5C[C@H](F)C6)nc4c3F)c12 [compound 301, ((S)-2,2-difluorocyclopropyl) (9-(7-(8-ethynyl-7-fluoro-3-hydroxynaphthalen-1-yl)-8-fluoro-2-(((2R,7aS)-2-fluorotetrahydro-1H-pyrrolizin-7a(5H)-yl)methoxy)pyrido[4,3-d]pyrimidin-4-yl)-6-oxa-2,9-diazaspiro[3.6]decan-2-yl)methanone]
16 | < 5 | < 5 | N#Cc1c(N)sc2c(F)ccc(-c3c(Cl)cc4c(N5CCCCC6(CN(C(=O)C7(C(F)F)CC7)C6)C5)nc(OC[C@@]56CCCN5C[C@H](F)C6)nc4c3F)c12 [compound 276, 2-amino-4-(6-chloro-4-(2-(1-(difluoromethyl)cyclopropane-1-carbonyl)-2,6-diazaspiro[3.6]decan-6-yl)-8-fluoro-2-(((2R,7aS)-2-fluorotetrahydro-1H-pyrrolizin-7a(5H)-yl)methoxy)quinazolin-7-yl)-7-fluorobenzo[b]thiophene-3-carbonitrile]
17 | < 5 | < 5 | CC(=O)N1CC2(CCCN(c3nc(OC[C@@]45CCCN4C[C@H](F)C5)nc4c(F)c(-c5ccc(F)c6sc(N)c(C#N)c56)c(Cl)cc34)C2)C1 [compound 169, 4-(4-(2-acetyl-2,6-diazaspiro[3.5]nonan-6-yl)-6-chloro-8-fluoro-2-(((2R,7aS)-2-fluorotetrahydro-1H-pyrrolizin-7a(5H)-yl)methoxy)quinazolin-7-yl)-2-amino-7-fluorobenzo[b]thiophene-3-carbonitrile]
18 | < 5 | < 5 | N#CN1CC2(C1)CN(c1nc(OC[C@@]34CCCN3C[C@H](F)C4)nc3c(F)c(-c4ccc(F)c5sc(N)nc45)c(Cl)cc13)CCO2 [compound 187, 8-(7-(2-amino-7-fluorobenzo[d]thiazol-4-yl)-6-chloro-8-fluoro-2-(((2R,7aS)-2-fluorotetrahydro-1H-pyrrolizin-7a(5H)-yl)methoxy)quinazolin-4-yl)-5-oxa-2,8-diazaspiro[3.5]nonane-2-carbonitrile]
